Test results from patent publication US20240197727A1, “SOLID DISPERSIONS COMPRISING AMORPHOUS PIMOBENDAN AND ONE OR MORE STABILIZING POLYMERS” (Boehringer Ingelheim Vetmedica GmbH, priority 2022, published 2024).
Values after ≈ are worked out from the molar mass of the structure shown.

Tests used:
[1] = pH 5; cited from earlier work
[2] = Thermodynamic (equilibrium) solubility at 37° C., immersed UV probes; type: physicochemical; conditions: aqueous buffer, thermodynamic from solid

Question: Which “Solubility (amount that dissolves) in water” value [1] does the source give for `COc1ccc(-c2nc3ccc(C4=NNC(=O)CC4C)cc3[nH]2)cc1` (stereo not drawn) [Crystalline pimobendan] here?
Answer: Its value is “about 1 mg/liter”.

Question: What about the solubility thermodynamic ([2]; pH 3.0 (maleic acid buffer)) of the same compound?
Answer: Its solubility thermodynamic is 19.5 µg/mL (≈ 58.3 µM).

Question: And the solubility thermodynamic ([2]; pH 6.5 (phosphate buffer))?
Answer: The solubility thermodynamic was 0.3 µg/mL (≈ 0.897 µM).
